Assay results as given in patent publication US20230001010A1, “COMPOSITIONS AND METHODS FOR TREATING AUTOIMMUNE DISORDERS” (The Regents of the University of Michigan, priority 2019, published 2023).

Columns and labels:
[1] = Antigen / drug loading efficiency in HDL nanodiscs (HPLC/MS); format: physicochemical; details: for drug encapsulate efficiencies: drug in HDL nanodiscs, HPLC-MS; for loading efficiency in HDL: antigen / antigen-lipid conjugate loaded into HDL nanodiscs, HPLC/MS
Method: (§1) HDL nanodisc was prepared as previously described. Briefly, DMPC was dissolved in chloroform, which was evaporated with nitrogen flow and under vacuum for at least 1 h. The resulting lipid film was hydrated in 10 mM sodium phosphate buffer and sonicated in a bath sonicator for 10 min. ApoA1 mimetic peptide 22A dissolved in endotoxin free water was added to the above mixture (22A:DMPC=1:2 weight ratio) to obtain nanodiscs. To load MOG antigen peptide in nanodiscs, each antigen peptide was reacted with 4-(4-maleimidophenyl)-butyric DOPE for 3 h in dimethylformamide (DMF), which was removed by freeze-drying after dilution 10× with endotoxin-free water. The lipid-peptide conjugates were dissolved in DMSO and added to pre-formed sHDL and incubated for 30 min at room temperature. Unreacted MOG peptides were removed by using Zeba Spin Desalting columns (Pierce) following the manufacturer's instructions. The conjugation efficiency of MOG peptide was determined by LC-MS and gel permeation chromatography (GPC). EAE was induced in female C57BL/6 mice by inoculation with 100 μg of MOG in complete Freund's adjuvant on day 0 following the administration of pertussis toxin. Mice were then injected subcutaneously at tail base for therapeutic study with sHDL-MOG, MOG or PBS on indicated days. Mice were weighed and scored daily based on the following guideline: 0, no sign of disease; 1, loss of tone in the tail; 2, hind limb paresis; 3, hind limb paralysis; 4, tetraplegia; and 5, moribund.
To produce HDL nanodiscs carrying immunomodulatory drugs, 22A, and DMPC were dissolved in acetic acid and freeze-dried overnight as shown above. Drugs (FTY720, ITE, TSA, or SAHA) were dissolved in chloroform and added to lyophilized powder, followed by drying overnight in vacuum oven. Dried samples were rehydrated by 10 mM phosphate buffer. After three heat-cooling cycles, HDL-loaded with drugs were performed. The concentration of each drug was measured by HPLC-MS as shown for FTY720, ITE, TSA, or SAHA (FIGS. 14-17, respectively). Free drugs were used to generate standard curves. […] Samples were also analyzed by dynamic light scattering (DLS) for the particle sizes. […] We also analyzed HDL-FTY720 samples using gel permeation chromatography (GPC) (FIG. 19).
We synthesized HDL nanodiscs loaded with other CD4+ T cell epitopes for validation of our approach. We have synthesized phospholipids conjugated to either Ea chain 52-68 peptide (EA, ASFEAQGALANIAVDKA (SEQ ID NO: 831)), ovalbumin-II 323-339 peptide (OVA-II, ISQAVHAAHAEINEAGR (SEQ ID NO: 832)), and type-II collagen 250-270 peptide (CIA, […] (SEQ ID NO: 833)), each modified with CSS-peptide at N-terminus. Antigen-lipid conjugates were loaded into HDL nanodiscs as described above and analyzed by HPLC/MS and DLS. EA, OVA-II, and CIA peptides were conjugated to MPB-phospholipids with ˜95% conjugation efficiency (FIGS. 22-25). Antigen-lipid conjugates were efficiently loaded into HDL nanodiscs with ˜90%, ˜84%, and ˜78% loading efficiency for EA, OVA-II, and CIA peptides, respectively (FIGS. 22-25).

[2] = test system: experimental autoimmune encephalomyelitis (EAE); assay: Experimental autoimmune encephalomyelitis (EAE) mouse model, pathological score; format: in vivo, C57BL/6 mice; details: for time until mice were moribund: treated on days 2, 9 and 16; for average pathological score: treated s.c. on days 2, 9 and 16
Method: as §1
EAE-induced mice were administered s.c. with PBS or HDL-MOG on days 15, 22, and 29, and a subset of animals also received i.p. administration of […] to deplete Tregs at the specified time points (FIG. 13).
We examined the therapeutic potential of HDL-FTY720 in the EAE model. EAE was initiated as described above. Briefly, EAE was induced in mice as indicated above. Mice received i.p. administration of PBS or HDL-FTY720 (1 mg/kg) on days 14, 21, and 28. Mice were scored daily and assigned EAE scores as indicated above.

[3] = Lymph node draining / biodistribution of TMR-labelled antigen after s.c. administration; format: in vivo, C57BL/6 mice; details: naive mice, after one day
Method: Tetramethylrhodamine (TMR, excitation/emission ˜540/560 nm) modified MOG peptide (CSSGWYRSPFSRVVHL-TMR, MOG-TMR SEQ ID NO: 829) was prepared by reacting TMR-NHS and MOG peptide according to the manufacturer's instruction. MOG-TMR was purified using HPLC and reacted with DOPE-MAL in DMF to produce DOPE-Mal-MOG-TMR (MOG-TMR). Next, the DMF solution was diluted with water, freeze-dried, dissolved in DMSO, and added to previously made HDL to produce HDL-MOG-TMR. Conjugation of MOG-TMR to DOPE-MAL and incorporation of MOG-TMR in HDL were measured by HPLC/MS, as indicated above. For the lymph node draining studies, naive female C57BL/6 mice or EAE-induced mice were administered s.c. at tail base with HDL-MOG-TMR or free MOG-TMR containing antigen peptide (100 μg per mouse) in 100 μl volume. After 24, 96, and 196 hr, animals were euthanized, organs were harvested, and TMR signal was measured with an IVIS optical imaging system (Caliper Life Sciences). Inguinal lymph nodes and spinal cord were cut into small pieces and passed through a 70-μm cell strainer, washed two times, and stained with the indicated antibodies, followed by flow cytometry analysis.

[4] = test system: bone marrow-derived dendritic cells (BMDCs); assay: Cellular uptake by BMDCs (confocal microscopy); format: cell-based, C57BL/6 mice; details: FITC-labelled antigen
Method: To obtain bone marrow-derived dendritic cells (BMDCs), bone marrow was flushed from femurs and tibia bone of 5 to 6 weeks old C57BL/6 mice. Bone marrow cells were plated at 1×10^6 cells per dish in RPMI 1640 supplemented with 10% FBS, 55 μM β-mercaptoethanol, 5 ng/ml of GM-CSF, and 100 U/ml penicillin (BMDC media). On day three and five, one half of the culture media was replaced with fresh media. After 8 days, BMDCs were harvested and plated at 1×10^6 cells per well in 12-well plates.
(§2) Internalization of fluorescent HDL-MOG by BMDCs or microglia were visualized using confocal microscopy. BMDCs or microglia were seeded at 1×10^6 cells on 35 mm Petri dishes (MatTek) and incubated with the mixture of free CSS-MOG-K(FITC), or sHDL-CSS-MOG-K(FITC). Cells were then washed three times with PBS, fixed with 4% paraformaldehyde, washed, and permeabilized with 0.1% Triton-X solution. Actin filaments were stained with AlexaFluor 647-Phalloidin, MHC-II was stained with MHC-II-Texas red, and the nuclei were stained with DAPI. The samples were imaged using a 63× oil-immersion lens on a Nikon A-I spectral confocal microscope.

microglia = assay: Cellular uptake by microglia (confocal microscopy); format: cell-based, C57BL6/J mice; details: FITC-labelled antigen
Method: Mixed glial cell cultures were harvested from the cerebral cortex of newborn (P0-2) C57BL6/J mice as described previously. Cortices and brain stem were separated, and the blood vessels and meninges were carefully isolated. Then, the tissues were digested by enzymatic dissociation (0.05% trypsin-EDTA and […] DNase I), washed two times with 1% BSA in PBS. Cells were resuspended in DMEM (10% FBS, 1% penicillin/streptomycin, 0.5 mM 2-mercaptoethanol). Mixed glial cells were cultured in poly-D-lysine-coated flasks and grown at 37° C. and 5% CO2. After 10 days, microglia cells were isolated from the underlying astrocytic layer by shaking of the flask. The cell culture contained more than 95% microglial (CD11 b+, CD45+) cells as analyzed by flow cytometry.
as §2

Tregs in the CNS = assay: Frequency of Tregs in CNS of EAE mice (flow cytometry); format: in vivo; details: EAE-induced mice; day 40
Method: Cells from CNS were stained by anti-CD25, anti-CD4, and MOG-tetramer, followed by fixation/permeabilization and intracellular staining with anti-Foxp3. Stained cells were then analyzed by flow cytometry. […] On the other hand, mice treated with free MOG peptide or HDL-M30 had basal level of Tregs as in PBS-treated EAE mice (FIGS. 12A-12B).

[5] = test system: CD4+ T cells from splenocytes; assay: Intracellular cytokine staining of CD4+ T cells from splenocytes; format: in vivo, C57BL/6 mice; details: spleen; day 40
Method: (§3) Briefly, female C57BL/6 mice were injected subcutaneously with an emulsion of MOG35-55 ([…], SEQ ID NO: 830) in complete Freund's adjuvant (CFA) and intraperitoneal (i.p.) injection of pertussis toxin (120 ng/dose on days 0 and 2). EAE-induced mice were treated with PBS, free MOG, HDL-MOG, or HDL-M30 (irrelevant CD4+ T cell epitope from B16F10 tumor cells) and CNS tissues were harvested on day 40 (FIG. 10A). CNS tissues were harvested from mice after intracardiac perfusion with PBS. Spinal cord was harvested, homogenized in 10 ml of PBS containing 1% BSA, and pelleted at 800×g for 5 min. Cell pellets were resuspended in 3 ml of collagenase A (1 mg/ml) and DNase I (1 mg/ml) in HBSS and incubated in a 37° C. water bath for 30 min. Samples were pelleted at 800×g, resuspended in 27% Percoll, and centrifuged for 10 min at 800×g. The myelin/debris layer and Percoll were removed, and the cell pellet was stained and analyzed by flow cytometric analysis. Splenic immune cells were isolated by homogenization through a 70 µm strainer (BD Falcon). RBCs were lysed using ACK lysis buffer. Cells were washed with 25 ml of PBS, centrifuged at 800×g, resuspended in FACS buffer, and stained with antibodies. For the cellular surface staining, cells were resuspended in PBS with a fixable viability dye (BV510) for 10 min. Then, cells were washed two times with FACs buffer and resuspended in Fc Block (anti-CD16/32; 100 ng/ml). For ex vivo re-stimulation, cells were incubated for 96 hr with MOG35-55 before brefeldin A (BFA) (5 μg/ml) was added for 4 h. For intracellular staining, cells were stained for surface markers, fixed/permeabilized, and stained with antibody for 30 min on the ice. After 2× washing, cells were resuspended in FACS buffer and analyzed by flow cytometric analysis. Data were collected with a Cytek Aurora flow cytometer using FCS express software (V7).
(§4) On day 40, CNS tissues were isolated and pulsed ex vivo with MOG35-55 peptide, followed by measurement of IL-17, IFN-gamma, and GM-CSF by ELISA (FIG. 10B). […]

CNS tissues of EAE mice = assay: Cytokine release from CNS cells of treated EAE mice after ex vivo MOG35-55 re-stimulation (ELISA); format: in vivo, C57BL/6 mice; details: day 40, pulsed ex vivo with MOG35-55
Method: FIG. 6A is a schematic diagram depicting the treatment regimen. FIG. 6B are graphs showing the amount of GM-CSF, IFN-gamma, and IL-17 released after ex vivo treatment of CNS tissues with MOG35-55 peptide.
as §3, with “(V7). […]” for “(V7).”

[6] = test system: CD4+ T cells from CNS cells; assay: Intracellular cytokine staining of CD4+ T cells from CNS; format: in vivo, C57BL/6 mice; details: day 40
Method: as §3, §4

[7] = harsh EAE induced with MOG1-125

CC(/C=C/C(=O)NO)=C\[C@@H](C)C(=O)c1ccc(N(C)C)cc1 [TSA, Trichostatin A]
drug encapsulate efficiencies [1]: ~80%

GPKGQTGKPGIAGFKGEQGPK [CIA, type-II collagen 250-270 peptide, modified with CSS-peptide at N-terminus]
loading efficiency in HDL [1]: ~78%

CCCCCCCCc1ccc(CCC(N)(CO)CO)cc1 [FTY720, Fingolimod]
EAE score ([2]; FTY720 0.3 mg/Kg oral daily for 30 days starting day 30): 3 | EAE score ([2]; FTY720 1 mg/Kg oral daily for 30 days starting day 30): 1 | day by which mice had to be euthanized after treatment stopped ([2]; FTY720 oral daily for 30 days starting day 15): ≤ 55 days | day by which mice had to be euthanized after treatment stopped ([2]; FTY720 oral daily for 30 days starting day 30): ≤ 90 days | EAE score ([2]; treatment started day 15: HDL-MOG s.c. days 15, 22, 29, followed 85 days, FTY720 oral daily for 30 days): above 2

CSSGWYRSPFSRVVHL-TMR [MOG-TMR]
TMR signal in inguinal dLNs [3]: minimal TMR signal

ISQAVHAAHAEINEAGR [OVA-II, ovalbumin-II 323-339 peptide, modified with CSS-peptide at N-terminus]
loading efficiency in HDL [1]: ~84%

CSS-MOG-K(FITC) [MOG-FITC]
internalization by BMDCs [4]: minimal signal | internalization by microglia (microglia): minimal signal

O=C(CCCCCCC(=O)Nc1ccccc1)NO [SAHA, Suberoylanilide hydroxamic acid]
drug encapsulate efficiencies [1]: ~100%

COC(=O)c1csc(C(=O)c2c[nH]c3ccccc23)n1 [ITE, 2-(1′H-indole-3′-carbonyl)-thiazole-4-carboxylic acid methyl ester]
drug encapsulate efficiencies [1]: ~95%

ASFEAQGALANIAVDKA [Ea chain 52-68 peptide, modified with CSS-peptide at N-terminus]
loading efficiency in HDL [1]: ~90%

MEVGWYRSPFSRVVHLYRNGK [free MOG peptide]
frequency of CD25+Foxp3+ Tregs in the CNS (Tregs in the CNS): basal level | loading efficiency in HDL [1]: ~90% | frequency of CD4+ T cells producing GM-CSF [5]: high frequencies | frequency of CD4+ T cells producing IFN-gamma [5]: high frequencies | frequency of CD4+ T cells producing IL-17 [5]: high frequencies | level of GM-CSF in CNS (CNS tissues of EAE mice): high levels | level of IFN-gamma in CNS (CNS tissues of EAE mice): high levels | level of IL-17 in CNS (CNS tissues of EAE mice): high levels | frequency of CD4+ T cells producing GM-CSF [6]: high frequencies | frequency of CD4+ T cells producing IFN-gamma [6]: high frequencies | frequency of CD4+ T cells producing IL-17 [6]: high frequencies | time until mice were moribund [2, 7]: ≤ 20 days | average pathological score [2, 7]: 5 | time until mice were moribund ([2]; mild EAE induced with MOG35-55): ≤ 20 days | average pathological score ([2]; mild EAE induced with MOG35-55): 5
